Measurements taken from patent publication US20250171407A1, “ULTRAVIOLET ABSORBER” (BASF SE, priority 2022, published 2025).

Assay: Solubility test: visual assessment of defects in the dried paint of the stabilized coating formulation
Assay type: physicochemical
From the text: Each coating formulation A was stabilized with 1.0 or 3.0 active % based on resin solids of Tinuvin® 1130 (UV absorber, BASF SE), Tinuvin® 9945-DW (N) or inventive examples samples.
Each coating formulation further contained 1,0 active % based on resin solids of Tinuvin® 123DW (N) (HALS, BASF SE).
The clear coat formulations were subsequently applied by brush onto a wood substrate (thickness: two layers à 100 g/m^2 resulting after drying at room temperature in a final dry film thickness of ˜40 μm). The clear coat formulations were subsequently applied by draw-down onto a glass plate (thickness: one layer b 200 g/m^2 resulting after drying at room temperature in a final dry film thickness of ˜40 μm).
The solubility of above-described coating formulation containing one of the compounds obtained in examples 3, 11 and 27 in the amount given above was tested. The solubility was visually assessed qualitatively by presence of defects in the dried paint.

Presence of defects: no
Substance: Tinuvin® 1130 [Example 27]
